Laboratory results taken from BindingDB's records for patent US12180196 (Hoffmann-La Roche, 2024).

Target: Cannabinoid receptor 2 (Homo sapiens, UniProt P34972)
Assay: Radioligand Binding Assay
Procedure: The affinity of the compounds of the invention for cannabinoid CB1 receptors was determined using recommended amounts of membrane preparations (PerkinElmer) of human embryonic kidney (HEK) cells expressing the human CNR1 or CNR2 receptors in conjunction with 1.5 or 2.6 nM [3H]-CP-55,940 (Perkin Elmer) as radioligand, respectively. Binding was performed in binding buffer (50 mM Tris, 5 mM MgCl2, 2.5 mM EDTA, and 0.5% (wt/vol) fatty acid free BSA, pH 7.4 for CB1 receptor and 50 mM Tris, 5 mM MgCl2, 2.5 mM EGTA, and 0.1% (wt/vol) fatty acid free BSA, pH 7.4 for CB2 receptor) in a total volume of 0.2 ml for 1 h at 30° C. shaking. The reaction was terminated by rapid filtration through microfiltration plates coated with 0.5% polyethylenimine (UniFilter GF/B filter plate; Packard). Bound radioactivity was analyzed for Ki using nonlinear regression analysis (Activity Base, ID Business Solution, Limited), with the Kd values for [3H]CP55,940 determined from saturation experiments. The compounds of formula (I) show an excellent affinity for the CB2 receptor.

Chain of Cannabinoid receptor 2 (P34972 whole entry): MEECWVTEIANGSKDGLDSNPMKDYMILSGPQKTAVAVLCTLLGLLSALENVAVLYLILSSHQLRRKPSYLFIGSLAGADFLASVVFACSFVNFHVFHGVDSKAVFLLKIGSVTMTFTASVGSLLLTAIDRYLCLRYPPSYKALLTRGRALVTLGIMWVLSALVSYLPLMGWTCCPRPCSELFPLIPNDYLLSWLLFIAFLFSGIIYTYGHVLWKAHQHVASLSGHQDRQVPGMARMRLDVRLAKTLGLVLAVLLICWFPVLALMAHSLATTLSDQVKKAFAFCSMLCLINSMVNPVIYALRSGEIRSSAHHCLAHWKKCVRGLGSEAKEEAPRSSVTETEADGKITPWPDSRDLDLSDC

- Ki: 14 nM
SMILES: CCOC(=O)C(CC)(CC)NC(=O)c1ccc(N2CC(OCF)C2)c(OCC2CC2)n1 [US12180196, Example 3]
